Test results taken from patent US20050209278A1, “Piperidinyl- and piperazinyl-sulfonylmethyl hydroxamic acids and their use as protease inhibitors” (priority 2002, published 2005).
pIC50: −log10 of the molar value.

Experiments:
MMP-13 = biological target: T1, MMP-13 (Homo sapiens, UniProt P45452); test: In vitro MMP inhibition, IC50 determination (fluorogenic substrate I); type: biochemical; settings: value in parentheses; read-out: MMP-13 (IC-50)
T1 construct: made in house; host or cells: baculovirus / insect cells
Procedure: (§1) Several hydroxamic acids and salts thereof were analyzed in in vitro assays to determine their ability to inhibit the MMP cleavage of peptide substrates. […] and IC50 constants were calculated from the assayed hydroxamic acid-MMP interactions.
(§2) Human recombinant MMP-1, MMP-2, MMP-9, MMP-13, and MMP-14 were used in this assay. All enzymes were prepared in Assignee's laboratories following usual laboratory procedures. Protocols for the preparation and use of these enzymes are available in the scientific literature. See, e.g., Enzyme Nomenclature (Academic Press, San Diego, Calif., 1992) (and the citations therein). See also, Freije et al., “Molecular cloning and expression of collagenase-3, a novel human matrix metalloproteinase produced by breast carcinomas,” J Biol. Chem., 269(24), 16766-16773 (1994).
The MMP-13 was obtained as a proenzyme from a full-length cDNA clone using baculovirus, as described by V. A. Luckow, “Insect Cell Expression Technology,” Protein Engineering: Principles and Practice, pp. 183-218 (edited by J. L. Cleland et al., Wiley-Liss, Inc., 1996). The expressed proenzyme was first purified over a heparin agarose column, and then over a chelating zinc chloride column. The proenzyme was then activated by APMA for use in the assay. Further details on baculovirus expression systems may be found in, for example, Luckow et al., J. Virol., 67, 4566-79 (1993). See also, O'Reilly et al, Baculovirus Expression Vectors: A Laboratory Manual (W.H. Freeman and Co., New York, N.Y., 1992). See also, King et al., The Baculovirus Expression System: A Laboratory Guide (Chapman & Hall, London, England, 1992).
(§3) All MMPs were activated using 4-aminophenylmercuric acetate (“APMA”, Sigma Chemical, St. Louis, Mo.) or trypsin. MMP-9 also was activated using human recombinant MMP-3 (purified in Assignee's laboratory following standard cloning and purification techniques).
(§4) Two fluorogenic, methoxycoumarin-containing polypeptide substrates were used in the MMP inhibition assays: [drawing 427] Here, “Dpa” is 3-(2,4-dinitrophenyl)-L-2,3-diaminopropionyl group, and “MCA” is 7-methoxycoumarin-4-yl acetyl. Substrate (I) was purchased from Baychem (Redwood City, Calif.), and substrate II was prepared Assignee's laboratory. Substrate I was used in the IC50 determination assays, while substrate II was used in the Ki determination assays. In the absence of MMP inhibitory activity, either substrate is cleaved at the Gly-Leu peptide bond. This cleavage separates the highly fluorogenic peptide from the 2,4-dinitrophenyl quencher, thus resulting in increase of fluorescent intensity.
(§5) The stock solutions of the assayed hydroxamic acids (or salts thereof) were prepared in 1% dimethyl sulfoxide (DMSO). These stock solutions were diluted in Buffer A (100 mM Tris-HCl, 100 mM NaCl, 10 mM CaCl2, 0.05% polyoxyethylene 23 lauryl ether, pH 7.5) to obtain solutions with different hydroxamic acid concentrations, i.e., assay solutions with different concentrations of the assayed MMP inhibitory compound. The experiment controls contained the same amount of Buffer A/DMSO as the assayed sample, but contained no hydroxamic acid (or salt thereof).
The assays from which the IC50 determinations were made were performed as follows. The MMPs were activated with either trypsin or APMA (4-aminophenylmercuric acetate, Sigma Chemical, St. Louis, Mo.). The assayed hydroxamic acid samples were incubated in Microfluor™ White Plates (Dynatech, Chantilly, Va.) and analyzed on a Perkin Elmer L550 plate reader (Norwalk, Conn.). The excitation wavelength was 328 nm, and the emission wavelength—415 nm. All samples (assayed hydroxamic acids and controls) were incubated in separate plates at room temperature in the presence of 4 μM of MMP substrate (I). As stated in the previous paragraph, samples containing varying concentrations of the same assayed hydroxamic acid were prepared. Inhibition was measured as a reduction in fluorescent intensity as a function of MMP inhibitor concentration. […]

MMP-2 = biological target: T2, MMP-2 (Homo sapiens, UniProt P08253); test: as above; type: biochemical; settings: value in parentheses; read-out: MMP-2 (IC-50)
T2 construct: made in house; host or cells: MMP-2-transfected p2AHT2 cells
T2 sequence (P08253 110-660): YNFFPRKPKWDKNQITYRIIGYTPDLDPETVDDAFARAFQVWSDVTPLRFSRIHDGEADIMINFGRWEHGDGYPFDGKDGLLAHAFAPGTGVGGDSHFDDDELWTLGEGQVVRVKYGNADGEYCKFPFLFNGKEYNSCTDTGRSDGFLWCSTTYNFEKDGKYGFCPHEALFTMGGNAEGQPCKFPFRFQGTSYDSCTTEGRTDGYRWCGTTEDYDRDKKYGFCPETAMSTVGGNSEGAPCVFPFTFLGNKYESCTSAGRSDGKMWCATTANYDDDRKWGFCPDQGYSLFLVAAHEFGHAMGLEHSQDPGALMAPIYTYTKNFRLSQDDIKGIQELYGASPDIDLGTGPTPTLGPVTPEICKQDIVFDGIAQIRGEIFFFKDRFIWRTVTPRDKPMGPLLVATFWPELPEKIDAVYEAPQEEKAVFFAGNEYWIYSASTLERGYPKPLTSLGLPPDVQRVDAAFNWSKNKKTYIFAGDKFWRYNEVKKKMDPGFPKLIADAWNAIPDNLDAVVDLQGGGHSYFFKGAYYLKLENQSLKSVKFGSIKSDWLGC
Procedure: as §1, §2
The MMP-2 proenzyme was purified by gelatin Sepharose chromatography from MMP-2-transfected p2AHT2 cells provided by Dr. Gregory Goldberg of Washington University (St. Louis, Mo.).
as §3, §4, §5
The assays from which the IC50 determinations were made were performed as follows. The MMPs were activated with either trypsin or APMA (4-aminophenylmercuric acetate, Sigma Chemical, St. Louis, Mo.). The assayed hydroxamic acid samples were incubated in Microfluor™ White Plates (Dynatech, Chantilly, Va.) and analyzed on a Perkin Elmer L550 plate reader (Norwalk, Conn.). The excitation wavelength was 328 nm, and the emission wavelength—415 nm. All samples (assayed hydroxamic acids and controls) were incubated in separate plates at room temperature in the presence of 4 μM of MMP substrate (I). As stated in the previous paragraph, samples containing varying concentrations of the same assayed hydroxamic acid were prepared. Inhibition was measured as a reduction in fluorescent intensity as a function of MMP inhibitor concentration.
The above protocols were used to determine IC50 constants and Ki values for the compounds in Examples 1-27 above. All values in Table 2 are given in nM units. The IC50 measurements are in parenthesis.

Row | pIC50 (MMP-13) | pIC50 (MMP-2) | SMILES
1 | > 10.00 | > 10.00 | CCCCOc1ccc(N2CCN(S(=O)(=O)C3(C(=O)NO)CCN(c4ccc(C)cc4)CC3)CC2)cc1 [Example 295]
2 | 8.03 | 7.90 | Cc1cc(N2CCN(S(=O)(=O)C3(C(=O)NO)CCOCC3)CC2)ccc1OC(C)C [Example 299]
3 | 7.21 | 7.56 | CS(=O)(=O)c1ccc(N2CCN(S(=O)(=O)C3(C(=O)NO)CCOCC3)CC2)cc1 [Example 300]
4 | 9.05 | 8.96 | CCCCOc1ccc(N2CCN(S(=O)(=O)C3(C(=O)NO)CCN(CC4CC4)CC3)CC2)cc1 [Example 298]
5 | 10.00 | 10.00 | C#CCN1CCC(C(=O)NO)(S(=O)(=O)N2CCN(c3ccc(OCCCC)cc3)CC2)CC1 [Example 303]
6 | 8.77 | 9.40 | COCCOc1ccc(N2CCN(S(=O)(=O)C3(C(=O)NO)CCN(C4CC4)CC3)CC2)cc1F [Example 297]
7 | 9.15 | 9.70 | CCCCOc1ccc(N2CCN(S(=O)(=O)C3(C(=O)NO)CCN(C(=O)CN)CC3)CC2)cc1 [Example 292]
8 | 9.52 | 9.70 | CCCCOc1ccc(N2CCN(S(=O)(=O)C3(C(=O)NO)CCN(C4CC4)CC3)CC2)cc1 [Example 301]
9 | 9.10 | 9.52 | CCCCOc1ccc(N2CCN(S(=O)(=O)C3(C(=O)NO)CCN(Cc4cccnc4)CC3)CC2)cc1F [Example 293]
10 | 9.05 | > 10.00 | CCCCOc1ccc(N2CCN(S(=O)(=O)C3(C(=O)NO)CCN(c4ccc(C)cc4)CC3)CC2)cc1F [Example 296]
